Values of other authors as cited in US20190365664A1, “CARYOPHYLLENE FORMULATIONS, APPARATUSES, AND METHODS” (Biotech Institute, LLC, priority 2016, published 2019).

Settings: other studies (National Geographic News, Jun. 24, 2008)

## C=C1CC/C=C(\C)CC[C@@H]2[C@@H]1CC2(C)C [BCP, 4,11,11-Trimethyl-8-methylenebicyclo[7.2.0]undec-4-ene]
  psychoactive effects: does not have psychoactive effects
